Assay results from US8809331B2 (Genentech, Inc., priority 2011, dated 2014).
pKi: −log10 of the molar value.

These molecules were tested against T1, LRRK2 (Homo sapiens, UniProt Q5S007, G2019S) (assay: In Vitro LRRK2 LabChip Assay (LRRK2 Ki)). Conditions: Table 5 compounds (formula I).
T1 construct: purchased Invitrogen PV4882
Type: biochemical
Protocol: In Vitro LRRK2 LabChip Assay
This assay was used to determine a compound's potency in inhibiting activity of LRRK2 by determining, Kiapp, IC50, or percent inhibition values. In a polypropylene plate, LRRK2, fluorescently-labeled peptide substrate, ATP and test compound were incubated together. Using a LabChip 3000 (Caliper Life Sciences), after the reaction the substrate was separated by capillary electrophoresis into two populations: phosphorylated and unphosphorylated. The relative amounts of each were quantitated by fluorescence intensity. LRRK2 Ki was determined according to the equation: Y=V0*(1−((x+Ki*(1+S/Km)+Et)/(2*Et)−(((x+Ki*(1+S/Km)+Et)^2−(4*Et*x))^0.5)/(2*Et))). Ki values in Table 4 and elsewhere herein are shown in μM.
Assay conditions and materials used were as follows:
LRRK2 Wild type in 5 mM MgCl2: 15 nM (Invitrogen lot #500607F)
Kinase reaction time: 2 hours
Wild type in 5 mM MgCl2: 80 μM
Solid Support: Black 50 μL volume polypropylene 384 well plate (MatriCal cat # MP101-1-PP)
Kinase: LRRK2 G2019S (Invitrogen cat #PV4882). • LRRK2 Wild type (Invitrogen cat #PV4874).
Substrate: 5FAM-[…]-CONH2
Non-binding plate: 384 well clear V-bottom polypropylene plates (Greiner cat #781280).
ATP: 10 mM ATP (Cell Signaling cat #9804).
Coating Reagent #3: Coating Reagent #3 (Caliper).
Complete Reaction Buffer: H2O/25 mM Tris, pH 8.0/5 mM MgCl2/2 mM DTT/0.01% Triton X-100.
Stop Solution: H2O/100 mM HEPES, pH 7.2/0.015% Brij-35/0.2% Coating Reagent #3/20 mM EDTA.
Separation Buffer: H2O/100 mM HEPES, pH 7.2/0.015% Brij-35/0.1% Coating Reagent #3/1:200 Coating Reagent #8/10 mM EDTA/5% DMSO.
Compound Plate Preparation:
For serial dilutions, 34.6 μl DMSO was added to columns 3-24. For the assay controls, 37.5 μl DMSO was added to columns 1 and 2 of rows A and P. a, d and 50 μl 25 μM G-028831 (Staurosporine) was added to columns 1 and 2, row B. For the samples: to start at 100 μM, 37.5 μl DMSO was to columns 1 and 2, then 12.5 μl 10 mM compound; to start at 10 μM, 78 μl DMSO was added to columns 1 & 2, then 2 μl 10 mM compound; and to start at 1 μM, 25 μM compound (2 μl 10 mM cmpd+798 μl DMSO) was added to empty columns 1 and 2. A Precision instrument was used to perform 1:3.16 serial dilutions (“PLK_BM_serial_halflog”).
ATP was diluted to 282.1 μM in Complete Kinase Buffer (final concentration was 130 μM).
Total and Blank Preparation:
In Complete Reaction Buffer, substrate was diluted to 4 μM. Equal volumes of Complete Reaction Buffer and 4 μM substrate were combined to obtain the blank. Equal volumes of Complete Reaction Buffer and 4 μM substrate were combined and to the combined solution was added 2× final LRRK2 concentration.
To a 50 μl polypropylene plate, 5 μl/well buffer/substrate was added by hand to Blank wells. A Biomek FX was used to start the kinase reaction (“PLK SAR 23 ATP”). The following were added to the appropriate wells:
5 μl/well compound/ATP in Assay Plate;
5 μl/well kinase/substrate in Assay Plate;
The plate was incubated for 2 hours in the dark. Biomek FX was used to stop the kinase reaction (“PLK Stop”), and 10 μl/well Stop solution was added to the Assay Plate. Results were read on the LabChip 3000.
The LabChip 3000 was run using the job “LRRK2 IC50” with the following job settings:
Downstream voltage: −500 V
Upstream voltage: −2350 V
Post sample buffer sip time: 75 seconds
Post dye buffer sip time: 75 seconds
Final delay time: 200 seconds

T1 sequence (Q5S007 whole entry G2019S): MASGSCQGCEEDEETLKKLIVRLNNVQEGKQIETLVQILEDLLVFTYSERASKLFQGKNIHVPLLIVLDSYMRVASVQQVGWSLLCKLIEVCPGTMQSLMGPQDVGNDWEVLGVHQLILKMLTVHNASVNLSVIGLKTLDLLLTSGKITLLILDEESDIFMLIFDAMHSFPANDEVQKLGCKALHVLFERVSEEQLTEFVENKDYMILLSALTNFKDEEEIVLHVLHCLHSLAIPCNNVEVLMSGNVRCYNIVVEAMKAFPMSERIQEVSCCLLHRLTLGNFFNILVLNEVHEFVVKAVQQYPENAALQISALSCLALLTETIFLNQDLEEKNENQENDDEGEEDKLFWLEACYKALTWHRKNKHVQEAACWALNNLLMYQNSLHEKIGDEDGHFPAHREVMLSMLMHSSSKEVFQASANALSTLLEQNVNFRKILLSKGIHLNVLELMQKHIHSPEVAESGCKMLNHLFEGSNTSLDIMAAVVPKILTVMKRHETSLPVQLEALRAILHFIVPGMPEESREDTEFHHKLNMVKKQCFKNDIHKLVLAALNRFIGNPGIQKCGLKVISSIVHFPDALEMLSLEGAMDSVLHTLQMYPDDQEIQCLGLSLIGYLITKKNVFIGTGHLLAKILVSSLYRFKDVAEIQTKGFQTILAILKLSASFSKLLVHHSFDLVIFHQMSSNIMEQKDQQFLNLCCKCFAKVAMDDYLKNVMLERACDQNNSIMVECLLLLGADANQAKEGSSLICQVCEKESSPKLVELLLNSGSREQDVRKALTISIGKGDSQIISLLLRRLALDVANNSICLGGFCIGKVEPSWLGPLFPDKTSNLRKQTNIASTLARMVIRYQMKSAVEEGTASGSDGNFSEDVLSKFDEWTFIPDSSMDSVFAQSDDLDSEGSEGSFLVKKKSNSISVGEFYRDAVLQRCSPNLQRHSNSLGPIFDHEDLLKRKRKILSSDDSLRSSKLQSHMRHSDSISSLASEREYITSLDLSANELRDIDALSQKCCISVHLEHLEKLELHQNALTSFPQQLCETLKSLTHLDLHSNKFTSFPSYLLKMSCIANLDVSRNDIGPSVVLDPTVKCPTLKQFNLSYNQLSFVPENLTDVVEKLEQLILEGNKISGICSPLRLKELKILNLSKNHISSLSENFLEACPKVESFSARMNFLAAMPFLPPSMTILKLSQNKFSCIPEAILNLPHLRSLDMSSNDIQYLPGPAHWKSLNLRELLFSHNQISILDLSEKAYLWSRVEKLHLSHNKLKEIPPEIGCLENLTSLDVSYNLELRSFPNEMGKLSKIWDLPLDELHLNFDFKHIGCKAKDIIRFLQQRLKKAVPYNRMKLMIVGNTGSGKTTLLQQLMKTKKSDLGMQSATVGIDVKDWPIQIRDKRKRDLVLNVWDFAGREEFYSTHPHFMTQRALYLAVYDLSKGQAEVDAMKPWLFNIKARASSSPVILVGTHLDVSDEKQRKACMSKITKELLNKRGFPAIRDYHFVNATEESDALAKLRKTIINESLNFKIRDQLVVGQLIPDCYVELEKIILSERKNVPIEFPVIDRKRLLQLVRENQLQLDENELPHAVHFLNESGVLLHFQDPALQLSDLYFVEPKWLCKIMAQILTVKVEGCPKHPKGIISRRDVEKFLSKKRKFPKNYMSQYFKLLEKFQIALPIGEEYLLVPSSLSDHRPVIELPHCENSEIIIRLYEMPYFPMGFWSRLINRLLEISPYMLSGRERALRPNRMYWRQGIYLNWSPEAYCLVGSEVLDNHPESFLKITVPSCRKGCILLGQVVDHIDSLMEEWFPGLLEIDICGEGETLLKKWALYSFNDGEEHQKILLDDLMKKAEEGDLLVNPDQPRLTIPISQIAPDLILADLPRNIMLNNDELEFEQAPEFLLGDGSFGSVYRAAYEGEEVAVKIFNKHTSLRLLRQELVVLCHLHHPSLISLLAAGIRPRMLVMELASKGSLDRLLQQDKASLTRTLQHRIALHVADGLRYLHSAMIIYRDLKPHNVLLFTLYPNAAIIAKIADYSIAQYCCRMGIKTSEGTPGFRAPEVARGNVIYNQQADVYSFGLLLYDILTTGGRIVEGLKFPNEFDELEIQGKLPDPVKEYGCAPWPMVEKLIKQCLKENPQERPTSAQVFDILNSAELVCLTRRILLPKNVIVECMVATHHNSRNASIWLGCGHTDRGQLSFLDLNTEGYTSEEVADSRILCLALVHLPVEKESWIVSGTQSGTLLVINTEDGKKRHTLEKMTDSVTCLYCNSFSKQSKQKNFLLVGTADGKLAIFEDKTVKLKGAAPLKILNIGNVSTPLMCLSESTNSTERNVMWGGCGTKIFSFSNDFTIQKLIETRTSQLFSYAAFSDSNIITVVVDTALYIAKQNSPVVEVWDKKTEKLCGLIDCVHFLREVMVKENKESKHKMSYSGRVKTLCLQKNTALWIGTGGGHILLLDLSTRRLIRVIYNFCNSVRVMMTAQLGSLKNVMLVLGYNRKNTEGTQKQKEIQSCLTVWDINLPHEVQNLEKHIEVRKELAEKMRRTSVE

Row | Compound | pKi
1 | CCNc1nc(Nc2cc(F)c(C(=O)N3CCOCC3)cc2OCCF)ncc1C(F)(F)F [Compound 49, [4-(4-Ethylamino-5-trifluoromethyl-pyrimidin-2-ylamino)-2-fluoro-5-(2-fluoro-ethoxy)-phenyl]-morpholin-4-yl-methanone] | 8.69
2 | COc1cc(C(=O)N2CCOCC2)c(F)cc1Nc1ncc(C(F)(F)F)c(OC)n1 [Compound 50, [2-Fluoro-5-methoxy-4-(4-methoxy-5-trifluoromethyl-pyrimidin-2-ylamino)-phenyl]-morpholin-4-yl-methanone] | 7.48
3 | O=C(c1ccc(Nc2ncc(C(F)(F)F)c(NC3CC3)n2)c(F)c1F)N1CCOCC1 [Compound 51, [4-(4-Cyclopropylamino-5-trifluoromethyl-pyrimidin-2-ylamino)-2,3-difluoro-phenyl]-morpholin-4-yl-methanone] | 8.64
4 | O=C(c1cc(F)c(Nc2ncc(C(F)(F)F)c(NC3CC3)n2)cc1F)N1CCOCC1 [Compound 52, [4-(4-Cyclopropylamino-5-trifluoromethyl-pyrimidin-2-ylamino)-2,5-difluoro-phenyl]-morpholin-4-yl-methanone] | 8.47
5 | CNc1nc(Nc2cc(Cl)c(C(=O)N3CCOCC3)cc2F)ncc1C(F)(F)F [Compound 53, [2-Chloro-5-fluoro-4-(4-methylamino-5-trifluoromethyl-pyrimidin-2-ylamino)-phenyl]-morpholin-4-yl-methanone] | 7.71
6 | CNc1nc(Nc2cc(OC)c(C(=O)N(C)c3cnn(C)c3)cc2Cl)ncc1C(F)(F)F [Compound 55, 5-Chloro-2-methoxy-N-methyl-4-(4-methylamino-5-trifluoromethyl-pyrimidin-2-ylamino)-N-(1-methyl-1H-pyrazol-4-yl)-benzamide] | 7.84
7 | CNc1nc(Nc2cc(OC)c(C(=O)N3CCOCC3)cc2C)ncc1C(F)(F)F [Compound 58, [2-Methoxy-5-methyl-4-(4-methylamino-5-trifluoromethyl-pyrimidin-2-ylamino)-phenyl]-morpholin-4-yl-methanone] | 8.25
8 | CCNc1nc(Nc2cc(Cl)c(C(=O)N3CCOCC3)cc2F)ncc1C(F)(F)F [Compound 59, [2-Chloro-4-(4-ethylamino-5-trifluoromethyl-pyrimidin-2-ylamino)-5-fluoro-phenyl]-morpholin-4-yl-methanone] | 8.37
9 | CNc1nc(Nc2ccc(C(=O)N3CCOCC3)c(F)c2Cl)ncc1C(F)(F)F [Compound 60, [3-Chloro-2-fluoro-4-(4-methylamino-5-trifluoromethyl-pyrimidin-2-ylamino)-phenyl]-morpholin-4-yl-methanone] | 7.85
10 | CNc1nc(Nc2cc(F)c(C(=O)N3CCOCC3)c(F)c2OC)ncc1C(F)(F)F [Compound 63, [2,6-Difluoro-3-methoxy-4-(4-methylamino-5-trifluoromethyl-pyrimidin-2-ylamino)-phenyl]-morpholin-4-yl-methanone] | 7.61
11 | CCOc1nc(Nc2cc(F)c(C(=O)N3CCOCC3)cc2OC)ncc1C(F)(F)F [Compound 64, [4-(4-Ethoxy-5-trifluoromethyl-pyrimidin-2-ylamino)-2-fluoro-5-methoxy-phenyl]-morpholin-4-yl-methanone] | 7.77
12 | CNc1nc(Nc2cc(OC)c(C(=O)N3CCOCC3)cc2OC)ncc1C(F)(F)F [Compound 65, [2,5-Dimethoxy-4-(4-methylamino-5-trifluoromethyl-pyrimidin-2-ylamino)-phenyl]-morpholin-4-yl-methanone] | 8.96
13 | CNc1nc(Nc2cc(C(F)(F)F)c(C(=O)N3CCOCC3)cc2OC)ncc1C(F)(F)F [Compound 67, [5-Methoxy-4-(4-methylamino-5-trifluoromethyl-pyrimidin-2-ylamino)-2-trifluoromethyl-phenyl]-morpholin-4-yl-methanone] | 8.60
14 | CNc1nc(Nc2cc(C(F)(F)F)c(C(=O)N3CCOCC3)cc2OC)ncc1Cl [Compound 68, [4-(5-Chloro-4-methylamino-pyrimidin-2-ylamino)-5-methoxy-2-trifluoromethyl-phenyl]-morpholin-4-yl-methanone] | 8.33
15 | CNc1nc(Nc2cc(F)c(C(=O)N3CCOCC3)cc2Cl)ncc1C(F)(F)F [Compound 69, [5-Chloro-2-fluoro-4-(4-methylamino-5-trifluoromethyl-pyrimidin-2-ylamino)-phenyl]-morpholin-4-yl-methanone] | 8.03
16 | O=C(c1cc(OCCF)c(Nc2ncc(C(F)(F)F)c(NC3CC3)n2)cc1F)N1CCOCC1 [Compound 70, [4-(4-Cyclopropylamino-5-trifluoromethyl-pyrimidin-2-ylamino)-2-fluoro-5-(2-fluoro-ethoxy)-phenyl]-morpholin-4-yl-methanone] | 9.18
17 | CNc1nc(Nc2cc(C)c(C(=O)N3CCOCC3)cc2F)ncc1C(F)(F)F [Compound 73, [5-Fluoro-2-methyl-4-(4-methylamino-5-trifluoromethyl-pyrimidin-2-ylamino)-phenyl]-morpholin-4-yl-methanone] | 8.30
18 | CCNc1nc(Nc2cc(F)c(C(=O)N3CCOCC3)cc2Cl)ncc1C(F)(F)F [Compound 74, [5-Chloro-4-(4-ethylamino-5-trifluoromethyl-pyrimidin-2-ylamino)-2-fluoro-phenyl]-morpholin-4-yl-methanone] | 8.33

Other lines, results leading:

Row | pKi | Compound
19 | 7.08 | CCNc1nc(Nc2ccc(C(=O)N3CC[C@H](F)C3)cc2OC)ncc1C#N [Compound 54, 4-Ethylamino-2-[4-((S)-3-fluoro-pyrrolidine-1-carbonyl)-2-methoxy-phenylamino]-pyrimidine-5-carbonitrile]
20 | 8.95 | CCNc1nc(Nc2cc(OC)c(C(=O)N3CCC(F)(F)C3)cc2OC)ncc1C(F)(F)F [Compound 56, (3,3-Difluoro-pyrrolidin-1-yl)-[4-(4-ethylamino-5-trifluoromethyl-pyrimidin-2-ylamino)-2,5-dimethoxy-phenyl]-methanone]
21 | 7.84 | COc1nc(Nc2ccc(C(=O)N3CCOCC3)cc2OCCF)ncc1Cl [Compound 57, [4-(5-Chloro-4-methoxy-pyrimidin-2-ylamino)-3-(2-fluoro-ethoxy)-phenyl]-morpholin-4-yl-methanone]
22 | 8.99 | CCNc1nc(Nc2cc(OC)c(C(=O)N3CCC(F)(F)C3)cc2OCCF)ncc1C(F)(F)F [Compound 61, (3,3-Difluoro-pyrrolidin-1-yl)-[4-(4-ethylamino-5-trifluoromethyl-pyrimidin-2-ylamino)-5-(2-fluoro-ethoxy)-2-methoxy-phenyl]-methanone]
23 | 8.04 | CCNc1nc(Nc2cc(F)c(C(=O)N3CCOCC3)c(F)c2OC)ncc1C(F)(F)F [Compound 62, [4-(4-Ethylamino-5-trifluoromethyl-pyrimidin-2-ylamino)-2,6-difluoro-3-methoxy-phenyl]-morpholin-4-yl-methanone]
24 | 9.41 | CCNc1nc(Nc2cc(OC)c(C(=O)N3CCC(F)(F)C3)cc2OCF)ncc1C(F)(F)F [Compound 66, (3,3-Difluoro-pyrrolidin-1-yl)-[4-(4-ethylamino-5-trifluoromethyl-pyrimidin-2-ylamino)-5-fluoromethoxy-2-methoxy-phenyl]-methanone]
25 | 8.97 | CCNc1nc(Nc2cc(C)c(C(=O)N3CCOCC3)cc2Cl)ncc1C(F)(F)F [Compound 71, [5-Chloro-4-(4-ethylamino-5-trifluoromethyl-pyrimidin-2-ylamino)-2-methyl-phenyl]-morpholin-4-yl-methanone]
26 | 8.84 | CCNc1nc(Nc2cc(OCF)c(C(=O)N3CCOCC3)cc2Cl)ncc1C(F)(F)F [Compound 72, [5-Chloro-4-(4-ethylamino-5-trifluoromethyl-pyrimidin-2-ylamino)-2-fluoromethoxy-phenyl]-morpholin-4-yl-methanone]
